Assay results from ChEMBL document CHEMBL4651402, “Screening of ~5500 FDA-approved drugs and clinical candidates for anti-SARS-CoV-2 activity” (2021).

Test system: SARS-CoV-2
Test: microbe, parasite or virus in culture
Conditions: Severe acute respiratory syndrome coronavirus 2, Vero C1008, 48 h

Row | SMILES | IC50 | IC50 (read-out: pIC50 (converted))
1 | O=C(NCC1CCOCC1)c1cnc(Nc2ccc(Cl)cc2Cl)nc1C(F)(F)F [GW842166X] | > 20 µM | > 20 µM
2 | C=C1C/C(=C/C)C(=O)O[C@@H]2CCN3CC=C(COC(=O)[C@]1(C)O)[C@H]23 [SENECIPHYLLINE] | > 20 µM | > 20 µM
3 | NCCC(=O)NCCc1c[nH]cn1 [CARCININE] | > 20 µM | > 20 µM
4 | CCOC(=O)C(=O)Nc1nc(-c2ccc(OC)cc2)cs1 [TIOXAMAST] | > 20 µM | > 20 µM
5 | CCN(CC)CCNC(=O)c1ccc(NC(C)=O)cc1 [ACECAINIDE] | > 20 µM | > 20 µM
6 | CC12CCC(=O)C=C1C=CC1C2CCC2(C)C1CCC2(O)CCC(=O)O (stereo not given) | > 20 µM | > 20 µM
7 | Nc1ccc(/N=N/c2ccccc2)c(N)n1 [PHENAZOPYRIDINE] | > 20 µM | > 20 µM
8 | C[C@H](NCc1ccc(OCc2ccccc2F)cc1)C(N)=O [RALFINAMIDE] | > 20 µM | > 20 µM
9 | CCCNS(=O)(=O)Nc1ncnc(OCCOc2ncc(Br)cn2)c1-c1ccc(Br)cc1 | > 20 µM | > 20 µM
10 | O=C1c2cc(Cl)ccc2OC2CCON12 (stereo not given) [SECLAZONE] | > 20 µM | > 20 µM
11 | Cc1cc(-n2c(=O)[nH]c(=O)n(C)c2=O)ccc1Oc1ccc(SC(F)(F)F)cc1 [TOLTRAZURIL] | > 20 µM | > 20 µM
12 | COc1ccc(C(=O)OC2C[C@H]3CC[C@H](C2)N3C)cc1OC (stereo not given in full) | > 20 µM | > 20 µM
13 | CC(C[N+](C)(C)C)OC(N)=O (stereo not given) [BETHANECHOL] | > 20 µM | > 20 µM
14 | CCC(O)C(CC(C)N(C)C)(c1ccccc1)c1ccccc1 (stereo not given) [DIMEPHEPTANOL] | > 20 µM | > 20 µM
15 | CC(=O)N(C)C1(c2ccccc2)CCN(CCC[C@]2(c3ccc(Cl)c(Cl)c3)CCCN(C(=O)c3ccccc3)C2)CC1 [OSANETANT] | > 20 µM | > 20 µM
16 | C[C@@H](N)[C@@H](O)c1ccccc1 [(1S,2R)-PHENYLPROPANOLAMINE] | > 20 µM | > 20 µM
17 | CCOC(=O)c1ccc(N)cc1 [BENZOCAINE] | > 20 µM | > 20 µM
18 | O=C1c2ccccc2C(=O)C1c1ccc(Cl)cc1 [CLORINDIONE] | > 20 µM | > 20 µM
19 | OCCN1C[C@H](O)[C@@H](O)[C@H](O)[C@H]1CO [MIGLITOL] | > 20 µM | > 20 µM
20 | CC12CCC3C(CC[C@H]4C[C@H](Cl)CCC34C)C1CCC2=O (stereo not given in full) | > 20 µM | > 20 µM
21 | C[C@H]1O[C@@H](O[C@H]2[C@@H](O)C[C@H](O[C@H]3[C@@H](O)C[C@H](O[C@H]4CC[C@@]5(C)[C@H](CC[C@@H]6[C@@H]5CC[C@]5(C)[C@@H](C7=CC(=O)OC7)[C@@H](O)C[C@]65O)C4)O[C@@H]3C)O[C@@H]2C)C[C@H](O)[C@@H]1O [GITOXIN] | > 20 µM | > 20 µM
22 | Cc1nc(N(C)C(=O)Cc2ccc(-c3ccccn3)cc2)sc1S(N)(=O)=O | > 20 µM | > 20 µM
23 | COc1cc2c(cc1OC)C(C)N(CCc1ccc(N)cc1)CC2 (stereo not given) [VERADOLINE] | > 20 µM | > 20 µM
24 | CC(C)NCC(O)COc1ccccc1-n1cccc1 (stereo not given) [ISAMOLTAN] | > 20 µM | > 20 µM
25 | CN(C)C(=O)Oc1ccc[n+](C)c1 [PYRIDOSTIGMINE] | > 20 µM | > 20 µM
26 | CCN(CCNC(=O)Nc1ccccc1Br)c1cccc(C)c1 | > 20 µM | > 20 µM
27 | CC1O[C@@H](OC2C(O)[C@H](OCCc3ccc(O)c(O)c3)OC(CO)[C@H]2OC(=O)/C=C/c2ccc(O)c(O)c2)C(O)C(O)[C@H]1O (stereo not given in full) | > 20 µM | > 20 µM
28 | CCc1nc(N)nc(N)c1-c1ccc(Cl)cc1 [PYRIMETHAMINE] | > 20 µM | > 20 µM

Row | SMILES | IC50 | IC50 (read-out: pIC50 (converted))
29 | O=C1c2ccccc2S(=O)(=O)N1CCCCN1CCN(c2ncccn2)CC1 [IPSAPIRONE] | > 20 µM | > 20 µM
30 | CN1C(=O)COc2c(C(=O)NC3CN4CCC3CC4)cc(Cl)cc21 (stereo not given) [AZASETRON] | > 20 µM | > 20 µM
31 | Cc1c(C(=O)NN2CCCCC2)nn(-c2ccc(Cl)cc2Cl)c1-c1ccc(Cl)cc1 [RIMONABANT] | > 20 µM | > 20 µM
32 | C#Cc1cccc(Nc2ncnc3cc4c(cc23)OCCOCCOCCO4)c1 [ICOTINIB] | > 20 µM | > 20 µM
33 | COc1ccc(C2C(=O)c3ccccc3C2=O)cc1 [ANISINDIONE] | > 20 µM | > 20 µM
34 | CCO[C@@H]1OC(=O)C[C@@H]1NC(=O)[C@@H]1CCCN2C(=O)CC[C@H](NC(=O)c3nccc4ccccc34)C(=O)N12 | > 20 µM | > 20 µM
35 | CC1(C)SC2C(NC(=O)C(NC(=O)N3CCNC3=O)c3ccccc3)C(=O)N2C1C(=O)O (stereo not given) | > 20 µM | > 20 µM
36 | CC(O)(C(N)=O)c1ccccc1 (stereo not given) [ATROLACTAMIDE] | > 20 µM | > 20 µM
37 | c1cc2c(cc1C1CCCCC1)c1c3n2CCNC3CCC1 (stereo not given) | > 20 µM | > 20 µM
38 | CCC(C)(CN(C)C)OC(=O)c1ccccc1 (stereo not given) [AMYLOCAINE] | > 20 µM | > 20 µM
39 | CCCC[N+]1(C)[C@@H]2C[C@@H](OC(=O)[C@H](CO)c3ccccc3)C[C@H]1[C@@H]1O[C@@H]12 (stereo not given in full) [BUTYLSCOPOLAMINE] | > 20 µM | > 20 µM
40 | O=C1N[11C](=O)C(c2ccccc2)(c2ccccc2)N1 | > 20 µM | > 20 µM
41 | COc1ccc(C(=O)c2c(C)n(CCN3CCOCC3)c3ccccc23)cc1 [PRAVADOLINE] | > 20 µM | > 20 µM
42 | NNC(=O)c1ccncc1 [ISONIAZID] | > 20 µM | > 20 µM
43 | CN(C)c1cc2c(cc1Sc1nc3c(N)nccc3n1CCNCC(C)(C)C)OCO2 [CUDC-305] | > 20 µM | > 20 µM
44 | CC1CC[C@@]2(OC1)OC1CC3C4CC[C@@H]5C[C@@H](O)CC[C@]5(C)C4CC[C@]3(C)C1[C@@H]2C (stereo not given in full) | > 20 µM | > 20 µM
45 | CN1C(=O)CN=C(c2ccccc2F)c2cc(Cl)ccc21 [FLUDIAZEPAM] | > 20 µM | > 20 µM
46 | C[C@H](N[C@@H](CCc1ccccc1)C(=O)O)C(=O)N1CCC[C@H]1C(=O)O [ENALAPRILAT ANHYDROUS] | > 20 µM | > 20 µM
47 | OC(c1ccccc1)(c1ccccc1)C1CCNCC1 [AZACYCLONOL] | > 20 µM | > 20 µM
48 | CN1C(C(=O)Nc2ccccn2)=C(O)c2ccccc2S1(=O)=O [PIROXICAM] | > 20 µM | > 20 µM
49 | O=c1cc(CO)occ1O [KOJIC ACID] | > 20 µM | > 20 µM
50 | Cc1c(NC(=O)OC[C@@H]2COCCN2)cn2ncnc(Nc3ccc4c(cnn4Cc4cccc(F)c4)c3)c12 [AC-480] | > 20 µM | > 20 µM
51 | Cc1cc2c(cc1S(N)(=O)=O)S(=O)(=O)CCC2 | > 20 µM | > 20 µM
52 | OB1OCc2cc(F)ccc21 [TAVABOROLE] | > 20 µM | > 20 µM
53 | CCCCN1C[C@@H](O)[C@@H](O)[C@H](O)[C@H]1CO | > 20 µM | > 20 µM
54 | O=C(O)[C@H]1/C(=C/CO)O[C@@H]2CC(=O)N21 [CLAVULANIC ACID] | > 20 µM | > 20 µM
55 | Cc1cccn2c(=O)c(-c3nnn[nH]3)cnc12 [PEMIROLAST] | > 20 µM | > 20 µM
